Results as given in ChEMBL document CHEMBL1201862, “PubChem BioAssay data set” (2004).
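Assay format: 96-well plates, 48-hour exposure. GI50 marks 50% less growth.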 Active and inactive are the calls of the source. No stated cut-off is given here; in the data, active = GI50 up to about 1.1 µM and inactive = higher.

What was measured:
Experiment in all cases: NCI tumour cell line growth inhibition, 48 h
HT-29 = test system: HT-29
SN12C = test system: SN12C
IGROV-1 = test system: IGROV-1
HOP-18 = test system: HOP-18
M14 = test system: M14
DMS-114 = test system: DMS-114
UO-31 = test system: UO-31
SR = test system: SR
TK-10 = test system: TK-10
SF-295 = test system: SF-295
XF498 = test system: XF498
HOP-92 = test system: HOP-92
RPMI-8226 = test system: RPMI-8226
HCT-116 = test system: HCT-116
A549 = test system: A549
NCI-H460 = test system: NCI-H460
A498 = test system: A498
OVCAR-8 = test system: OVCAR-8
HOP-62 = test system: HOP-62
UACC-257 = test system: UACC-257
DLD-1 = test system: DLD-1
MOLT-4 = test system: MOLT-4
SK-MEL-5 = test system: SK-MEL-5
Malme-3M = test system: Malme-3M
SW-620 = test system: SW-620
OVCAR-3 = test system: OVCAR-3
ACHN = test system: ACHN
SF-539 = test system: SF-539
SNB-19 = test system: SNB-19
SK-MEL-28 = test system: SK-MEL-28
NCI-H522 = test system: NCI-H522
HL-60 = test system: HL-60
U-251 = test system: U-251
RXF 631 = test system: RXF 631
LXFL 529 = test system: LXFL 529
RXF 393 = test system: RXF 393
OVCAR-4 = test system: OVCAR-4
UACC-62 = test system: UACC-62
SNB-75 = test system: SNB-75
SK-MEL-2 = test system: SK-MEL-2
KM12 = test system: KM12
NCI-H226 = test system: NCI-H226
786-0 = test system: 786-0
HCT-15 = test system: HCT-15
HCC 2998 = test system: HCC 2998
CAKI-1 = test system: CAKI-1
NCI-H23 = test system: NCI-H23
OVCAR-5 = test system: OVCAR-5
LOX IMVI = test system: LOX IMVI
KM-20L2 = test system: KM-20L2
SF-268 = test system: SF-268
SK-OV-3 = test system: SK-OV-3
EKVX = test system: EKVX
SNB-78 = test system: SNB-78
COLO 205 = test system: COLO 205
K562 = test system: K562
DMS-273 = test system: DMS-273
M19-MEL = test system: M19-MEL

Measured: GI50

CC1=C(C(=O)Nc2ccc(Cl)c(Cl)c2)C(c2ccc([N+](=O)[O-])cc2)C(C(=O)Nc2ccc(Cl)c(Cl)c2)=C(C)N1
active: SR 179 nM | MOLT-4 223 nM | HL-60 361 nM | K562 1.07 µM
2600 nM: HCT-15
inactive: HT-29 2.42 µM | SN12C 2.34 µM | IGROV-1 3.2 µM | HOP-18 3.6 µM | M14 1.85 µM | DMS-114 2.88 µM | UO-31 2.69 µM | TK-10 7.18 µM | SF-295 2.7 µM | XF498 1.44 µM | HOP-92 2.4 µM | RPMI-8226 1.45 µM | HCT-116 1.55 µM | A549 2.82 µM | NCI-H460 2.41 µM | A498 3.32 µM | OVCAR-8 2.13 µM | HOP-62 2.54 µM | UACC-257 2.51 µM | DLD-1 3.41 µM | SK-MEL-5 1.67 µM | Malme-3M 2.57 µM | SW-620 3.05 µM | OVCAR-3 1.66 µM | ACHN 3.09 µM | SF-539 3.13 µM | SNB-19 4.65 µM | SK-MEL-28 2.44 µM | NCI-H522 2.55 µM | U-251 2.49 µM | RXF 631 2.04 µM | LXFL 529 2.77 µM | RXF 393 1.78 µM | OVCAR-4 2.64 µM | UACC-62 1.7 µM | SNB-75 3.84 µM | SK-MEL-2 2.1 µM | KM12 1.82 µM | NCI-H226 3.88 µM | 786-0 2.81 µM | HCC 2998 2 µM | CAKI-1 2.54 µM | NCI-H23 2.21 µM | OVCAR-5 3.23 µM | LOX IMVI 2.06 µM | KM-20L2 1.66 µM | SF-268 3.38 µM | SK-OV-3 4.31 µM | EKVX 3.13 µM | SNB-78 2.82 µM | COLO 205 1.71 µM | DMS-273 2.91 µM | M19-MEL 1.82 µM
